Assay results from patent US7381688B2, “Methylthiophene carboxanilides” (Bayer CropScience AG, priority 2002, dated 2008).
Where two headings read alike, the source gives them in different places.

Legend:
[1] = logP determination by HPLC (reverse-phase C 18), EEC Directive 79/831 Annex V.A8; type: physicochemical; conditions: reverse-phase C18 HPLC column, 43° C.
Experimental: The logP value given in the Preparation Examples and tables above are determined in accordance with EEC Directives 79/831 Annex V.A8 by HPLC (High Performance Liquid Chromatography) using a reverse-phase column (C 18). Temperature: 43° C.
The determination is carried out in the acidic range at pH 2.3 using the mobile phases 0.1% aqueous phosphoric acid and acetonitrile; linear gradient from 10% acetonitrile to 90% acetonitrile.
Calibration is carried out using unbranched alkan-2-ones (having 3 to 16 carbon atoms) with known logP values (determination of the logP values by the retention times using linear interpolation between two successive alkanones).

Podosphaera leucotricha = assay: Podosphaera test (apple)/protective; type: in vivo; conditions: 240 h, protective, evaluation 10 days after inoculation, read-out: Efficacy in %
Experimental: Podosphaera Test (Apple)/Protective
(§1) • Solvents: 24.5 parts by weight of acetone • 24.5 parts by weight dimethylacetamide • Emulsifier: 1.0 part by weight alkylaryl polyglycol ether
(§2) To produce a suitable preparation of active compound, 1 part by weight of active compound is mixed with the stated amounts of solvents and emulsifier, and the concentrate is diluted with water to the desired concentration.
(§3) To test for protective activity, young plants are sprayed with the preparation of active compound at the stated application rate. After the spray coating has dried on, the plants are inoculated with an aqueous spore suspension of the apple mildew pathogen Podosphaera leucotricha. The plants are then placed in a greenhouse at about 23° C. and a relative atmospheric humidity of about 70%.
(§4) Evaluation is carried out 10 days after the inoculation. 0% means an efficacy which corresponds to that of the control, whereas an efficacy of 100% means that no infection is observed.

Sphaerotheca fuliginea = assay: Sphaerotheca test (cucumber)/protective; type: in vivo; conditions: Podosphaera fuliginea, 168 h, protective, evaluation 7 days after inoculation, read-out: Efficacy in %
Experimental: Sphaerotheca Test (Cucumber)/Protective
as §1, §2
as §3, with “Sphaerotheca fuliginea.” for “the apple mildew pathogen Podosphaera leucotricha.”
(§5) Evaluation is carried out 7 days after the inoculation. 0% means an efficacy which corresponds to that of the control, whereas an efficacy of 100% means that no infection is observed.

Venturia inaequalis = assay: Venturia test (apple)/protective; type: in vivo; conditions: 240 h, protective, evaluation 10 days after inoculation, read-out: Efficacy in %
Experimental: Venturia Test (Apple)/Protective
• Solvents: 24.5 parts by weight acetone • 24.5 parts by weight dimethylacetamide • Emulsifier: 1.0 part by weight alkylaryl polyglycol ether
To produce a suitable preparation of the active compound, 1 part by weight of active compound is mixed with the stated amounts of solvents and emulsifier, and the concentrate is diluted with water to the desired concentration.
To test for protective activity, young plants are sprayed with the preparation of active compound at the stated application rate. After the spray coating has dried on, the plants are inoculated with an aqueous Conidia suspension of the apple scab pathogen Venturia inaequalis and then remain in an incubation cabin at about 20° C. and 100% relative atmospheric humidity for 1 day.
The plants are then placed in a greenhouse at about 21° C. and a relative atmospheric humidity of about 90%.
as §4

Alternaria solani = assay: Alternaria test (tomato)/protective; type: in vivo; conditions: protective, 750 g/ha, evaluation 7 days after inoculation
Experimental: Alternaria Test (Tomato)/Protective
• Solvent: 49 parts by weight N,N-dimethylformamide • Emulsifier: 1 part by weight of alkylaryl polyglycol ether
(§6) To produce a suitable preparation of active compound, 1 part by weight of active compound is mixed with the stated amounts of solvent and emulsifier, and the concentrate is diluted with water to the desired concentration.
To test for protective activity, young tomato plants are sprayed with the preparation of active compound at the stated application rate. 1 day after the treatment, the plants are inoculated with a spore suspension of Alternaria solani and then remain at 100% relative humidity and 20° C. for 24 h. The plants then remain at 96% relative atmospheric humidity and a temperature of 20° C.
as §5

Pyrenophora teres = Pyrenophora teres test (barley)/protective; type: in vivo; conditions: protective, 500 g/ha, evaluation 7 days after inoculation
Experimental: Pyrenophora teres Test (Barley)/Protective
• Solvent: 25 parts by weight N,N-dimethylacetamide • Emulsifier: 0.6 part by weight alkylaryl polyglycol ether
as §6
To test for protective activity, young plants are sprayed with the preparation of active compound at the stated application rate. After the spray coating has dried on, the plants are sprayed with a conidia suspension of Pyrenophora teres. The plants remain in an incubation cabin at 20° C. and 100% relative atmospheric humidity for 48 hours.
The plants are then placed in a greenhouse at a temperature of about 20° C. and relative atmospheric humidity of about 80%.
as §5

[2] = pH 2.3, HPLC, read-out: logP (pH 2.3)
[3] = Table 1, acidic range at pH 2.3, HPLC, read-out: logP

SMILES | chromatographic logP [1, 2] | chromatographic logP [1, 3] | pest or weed control at 100 g/ha (Podosphaera leucotricha) [%] | pest or weed control at 100 g/ha (Sphaerotheca fuliginea) [%] | pest or weed control at 100 g/ha (Venturia inaequalis) [%] | Efficacy in % (Alternaria solani) [%] | Efficacy in % (Pyrenophora teres) [%]
Cc1ccsc1C(=O)Nc1ccccc1-c1ccc(F)c(Cl)c1 [Example 1, N-(3′-chloro-4′-fluoro-1,1′-biphenyl-2-yl)-3-methyl-2-thiophenecarboxamide] | 3.85 | – | 100 | 100 | 100 | – | –
Cc1ccsc1C(=O)Nc1ccccc1-c1ccc(OC(F)(F)F)cc1 [Example 6] | – | 4.33 | 100 | 100 | – | 100 | –
Cc1ccsc1C(=O)Nc1ccccc1-c1ccc(F)c(F)c1 [Example 9] | – | 3.55 | 100 | 100 | 100 | 100 | 100
Cc1ccsc1C(=O)Nc1ccccc1-c1ccc(OC(F)(F)F)c(F)c1 [Example 11] | – | 4.13 | 100 | 100 | 100 | – | –
Cc1ccsc1C(=O)Nc1ccccc1-c1ccc(OC(F)(F)F)c(C(F)(F)F)c1 [Example 12] | – | 4.37 | 100 | 100 | – | – | –
Cc1ccsc1C(=O)Nc1ccccc1-c1ccc(Cl)cc1F [Example 13] | – | – | 100 | 100 | 100 | – | 94

Now from value to compound, other results behind:

chromatographic logP [1, 2] | chromatographic logP [1, 3] | SMILES | pest or weed control at 100 g/ha (Podosphaera leucotricha) [%] | pest or weed control at 100 g/ha (Sphaerotheca fuliginea) [%] | pest or weed control at 100 g/ha (Venturia inaequalis) [%] | Efficacy in % (Alternaria solani) [%] | Efficacy in % (Pyrenophora teres) [%]
– | 4.12 | Cc1ccsc1C(=O)Nc1ccccc1-c1ccc(Br)cc1 [Example 3] | – | – | – | 100 | –
– | 3.97 | Cc1ccsc1C(=O)Nc1ccccc1-c1cccc(Cl)c1 [Example 5] | 100 | 93 | 100 | 100 | –
– | 3.65 | Cc1ccsc1C(=O)Nc1ccccc1-c1ccc(F)cc1 [Example 8] | – | – | – | 100 | 80
– | 3.85 | Cc1ccsc1C(=O)Nc1ccccc1-c1ccc(Cl)c(F)c1 [Example 10] | 100 | 100 | 100 | 100 | –
– | 4.32 | Cc1ccsc1C(=O)Nc1ccccc1-c1cc(Cl)cc(Cl)c1 [Example 15] | 100 | 100 | 97 | – | –
– | 5.76 | Cc1ccsc1C(=O)Nc1ccccc1-c1ccc(Cl)cc1Cl [Example 19] | 100 | 96 | 99 | – | –
3.3 | – | Cc1ccsc1C(=O)Nc1ccccc1Br [III-1, N-(2-bromophenyl)-3-methyl-2-thiophenecarboxamide] | – | – | – | – | –
